From patent US20230139826A1 (NONO INC., priority 2020, published 2023)
“Also recorded” adds a separate entry of the source. Like-named read-outs stand apart in the source and are kept apart here. Non-standard residues stand in square brackets, D forms with d. Residues, ends and D or L forms follow the SMILES beside them.

Tests used:
[1] = tested on: transient middle cerebral artery occlusion (tMCAO); experiment: Rat transient middle cerebral artery occlusion model; details: rat tMCAO, comparison of the two peptides
Experimental: Nerinetide and lodoxamide was administered to rats intravenously as a bolus injection, 60 minutes after tMCAo. […] Bars in A and represent mean±SD, with all individual data points plotted. Asterisks in A indicate P<0.01 when compared to the vehicle group (one-way ANOVA post hoc Tukey's correction for multiple comparisons test) N=12-14 animals/group. […] Significant differences are indicated with an asterisk when compared to the vehicle group (Kruskal-Wallis analysis of variance on ranks with a post-hoc Dunn's correction for multiple comparisons test, *P<0.01). Vehicle: PBS alone. Scrambled: ADA peptide incapable of binding PSD-95.
All animals subjected to surgery had their physiological parameters measured prior to MCA occlusion. PE-50 polyethylene tubing was inserted into the right femoral artery for invasive monitoring of mean arterial blood pressure and for obtaining blood samples to measure blood gases (pH, PaO2, and PaCO2), electrolytes (Na^+, K^+, iCa) and plasma glucose at baseline [Blood gas cartridge CG8+, VetScan i-STAT 1 Analyzer].
Infarct volumes and hemispheric swelling were evaluated at 24 hours post-stroke from standard brain slices stained with 2% 2,3,5-triphenyltetrazolium chloride (Sigma Aldrich, St. Louis, Md., USA)(7). Neurologic scoring was conducted at 24 hours after stroke onset using forelimb-placing tests comprising of frontal visual placing, sideways visual placing, frontal tactile placing, sideways tactile placing, and vertical tactile placing (scores range from 0-2 in each component for a maximum of 12 indicating maximum impairment.

[2] = molecular target: PDZ2 domain of PSD-95 (Homo sapiens, UniProt P78352); experiment: Direct ELISA of biotinylated peptides to PSD-95 PDZ2; format: binding
Experimental: ELISA plates were coated with 1 ug/ml PSD95PDZ2 in 50 mM bicarbonate buffer overnight at 4 C. The plate was blocked in 2%BSA in PBST (0.05%) for 2 h at room temperature. It was then incubated with biotinylated ligand (nerinetide, D-tat-L2B9c or D-Tat-L-AA) at the indicated concentrations (FIG. 4A) and incubated overnight at 4 C. After washing with PBS-T, the plate was incubated for 30 min with (1:3000) SA-HRP, washed again, and incubated with TMB solution for 10 min. The reaction was stopped with 100 ul H2504. Absorbance was determined at 450 nm with the synergy H1 reader.

[3] = tested on: embolic middle cerebral artery occlusion (eMCAO); experiment: Rat embolic middle cerebral artery occlusion model with alteplase reperfusion; format: in vivo, Sprague-Dawley rats
Experimental: To test this, male Sprague-Dawley rats (10-12 weeks old; 270-310 g; Charles River, Montreal, QC, Canada) were subjected to embolic middle cerebral artery occlusion (eMCAO), produced by the introduction of an autologous blood thrombus into the middle cerebral artery. Reperfusion was achieved by treatment with intravenous alteplase at a total dose of 5.4 mg/kg beginning at 90 minutes after ischemia onset. Alteplase was administered using the human injection protocol in which 10% of the total dose is given as a bolus, with the remainder 90% of the dose being given over a 60-minute infusion. […] This dose was chosen because in pilot studies, higher doses of alteplase (10× human dose) produced unacceptable mortality rates due to hemorrhagic conversions of strokes. Nerinetide was administered either 30 minutes prior to, or concurrently with, the start of the alteplase administration (FIG. 5A) at a dose of 7.6 mg/kg. […] Infarct volumes, hemispheric swelling and neurological scores were evaluated at 24 hours.
Male Sprague-Dawley rats were subjected to eMCAO as already described. Nerinetide (7.6 mg/kg) or D-Tat-L-2B9c (7.6 mg/kg) were given as bolus injections at 60 minutes. Alteplase (5.4 mg/kg over 60 min) was also started at 60 min after eMCAO, concurrently with the active agent that inhibits PSD-95. Neurological scoring, infarct volume, and hemispheric swelling were assessed at 24 hours (FIG. 8A).
The studies were designed to have 80% power to detect a 40% absolute difference between control and treatment groups at p=0.05. Animal randomization, drug allocation and treatment drug preparation were performed by a research associate not directly involved with surgical or outcome assessment. Nerinetide and D-Tat-L-2B9c were freshly prepared at a concentration of 7.6 mg/mL in 500 uL aliquots. Alteplase was prepared from lyophilized drug and, like matching placebo, stored in identical glass tubes. Drugs were kept at 4° C. until 10 minutes prior to use. The surgeon and the investigators responsible for the surgery, stroke volume measurement, behavioural assessment and statistical analysis were blinded to treatment allocation.

[4] = molecular target: plasmin (Homo sapiens, UniProt P00747)
Experimental: (A) LC/MS spectrum of nerinetide after incubation with plasmin in PBS. 10 uL aliquots of nerinetide (18 mg/mL) and plasmin (1 mg/mL) were incubated in 500 uL tubes of phosphate-buffered saline at 37 C for 5 min and the reaction stopped by cooling to −80 C until tested. […] (B, C) In-vitro effect of rt-PA on nerinetide content in rat (B) and human (C) plasma. Nerinetide was spiked into the plasma samples at t=0 at a concentration of 65 ug/ml, whereas alteplase (rt-PA) was administered as a 60 min infusion at the indicated concentration (D, E) In-vivo effect of the simultaneous administration of nerinetide and rt-PA on Cmax (D) and AUC (E) in the rat. The nerinetide bolus and alteplase (60 min infusion) were started simultaneously through two separate intravenous lines. Symbols represent mean±SD. […] […] (SEQ ID NO:3) (Full-length NA-1, undigested), […] […] (SEQ ID NO:8), […] […] (SEQ ID NO:10).
Direct ELISA of the indicated biotinylated peptides to the PDZ2 domain of PSD-95. […] Symbols indicate the mean±SD of triplicate experiments. […] (B). […] E,F. Time course of nerinetide or D-TAT-L-2B9c content in rat plasma (E) and human plasma (F) during a challenge with tenecteplase (TNK; 37.5 ug/ml or 6.25 ug/ml, respectively). […] (repeated measures two-way ANOVA with a post hoc Sidak's multiple comparisons test, *P<0.01). Symbols are means±SD. […]

[5] = In-vivo pharmacokinetic analysis in rats; details: rat, intravenous bolus 7.6 mg/kg
Experimental: Since the effect of nerinetide in the ESCAPE-NA1 trial was negated by alteplase, we next evaluated the effects of alteplase on pharmacokinetics (PK) of nerinetide in rats. Alteplase was administered at 0.9 mg/kg (human dose) and at 5.4 mg/kg (6 times the human dose) in an infusion that simulated the clinical protocol (10% bolus followed by a 60 min infusion of the remainder). Nerinetide was administered as an intravenous bolus at the start of the alteplase infusion at 7.6 mg/kg.
The goal of these study was to evaluate nerinetide PK parameter changes when in the presence of circulating rt-PA and plasmin. Male naïve rats received an intravenous administration of either nerinetide alone, nerinetide plus rt-PA (0.9 mg/kg) or nerinetide plus rt-PA (5.4 mg/kg). Sample collection was performed pre-dose and 0 min, 5 min, 10 min, 20 min, 50 min post-dose. At each time point, approximately 300 uL of blood was sampled from each animal using a fresh syringe. Blood samples were collected in previously prepared Eppendorf tubes [30 ul of EDTA 2.5%] and centrifuged for 20 minutes to separate plasma and cell components.
Plasma samples were stored at −80° C. until analyzed.
Changes in peptide concentration were analyzed using a two-way repeated measures ANOVA, followed by the Sidak correction for multiple comparisons. The pharmacokinetic (PK) parameters of peak plasma concentration (Cmax) and the area under the plasma concentration-time curve from 0 to last measured concentration (AUC) were obtained with PKsolver Software (USA) using a non-compartmental analysis and employing a linear interpolation. For stroke studies, differences between groups were tested using a One-way ANOVA with a Tukey's correction for multiple comparisons. […] Values for animals experiencing premature death due to any reason including subarachnoid hemorrhage or hemorrhagic transformation were imputed to reflect the worst neurological score and the maximum stroke volume achieved across all animals.

[6] = tested on: rt-PA (alteplase) (135 ug/ml); experiment: PBS during a challenge with rt-PA (135 ug/ml); details: 37° C.
[7] = rat plasma in the absence of alteplase; details: Rat Sprague Dawley, 37° C., up to 45 min
[8] = human plasma in the absence of alteplase; details: 37° C., up to 45 min
[9] = tested on: plasmin (1 mg/mL); experiment: plasmin in PBS (phosphate-buffered saline); details: 37 C, up to 5 min
[10] = cited from earlier work
[11] = tested on: tenecteplase (TNK) 37.5 ug/ml; experiment: rat plasma during a challenge with tenecteplase (TNK; 37.5 ug/ml); details: Rat Sprague Dawley
[12] = tested on: tenecteplase (TNK) 6.25 ug/ml; experiment: human plasma during a challenge with tenecteplase (TNK; 6.25 ug/ml)
[13] = tested on: rt-PA (alteplase) 135 ug/ml; experiment: rat plasma during a challenge with rt-PA (135 ug/ml); details: Rat Sprague Dawley, 37° C., up to 45 min
[14] = tested on: plasmin (10 ug/mL); experiment: PBS during a challenge with plasmin (10 ug/mL); details: 37° C.
[15] = tested on: rt-PA (alteplase) 135 ug/ml; experiment: human plasma during a challenge with rt-PA (135 ug/ml); details: 37° C., up to 45 min

Sequence of PDZ2 domain of PSD-95 (P78352 160-246 limits assumed): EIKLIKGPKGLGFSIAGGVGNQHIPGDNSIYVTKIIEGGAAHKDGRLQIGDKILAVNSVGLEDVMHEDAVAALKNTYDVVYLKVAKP

For `CC[C@H](C)[C@H](NC(=O)[C@H](CO)NC(=O)[C@H](CO)NC(=O)[C@H](CC(C)C)NC(=O)[C@H](CCCCN)NC(=O)[C@@H](CCCNC(=N)N)NC(=O)[C@@H](CCCNC(=N)N)NC(=O)[C@@H](CCCNC(=N)N)NC(=O)[C@@H](CCC(N)=O)NC(=O)[C@@H](CCCNC(=N)N)NC(=O)[C@@H](CCCNC(=N)N)NC(=O)[C@@H](CCCCN)NC(=O)[C@@H](CCCCN)NC(=O)[C@@H](CCCNC(=N)N)NC(=O)CNC(=O)[C@H](N)Cc1ccc(O)cc1)C(=O)N[C@@H](CCC(=O)O)C(=O)N[C@@H](CO)C(=O)N[C@@H](CC(=O)O)C(=O)N[C@H](C(=O)O)C(C)C` [D-Tat-L-2B9c, ygrkkrrqrrrKLSSIESDV SEQ ID NO:89] (H-[dY]G[dR][dK][dK][dR][dR][dQ][dR][dR][dR]KLSSIESDV-OH; C-terminus assumed), the “reducing infarction volume, hemispheric swelling and improving neurological scores” value [1] was “equally effective”, the EC50 [2] was 151 nM and the “binding to PDZ2 domain of PSD95 in ELISA” value [2] was “substantially similar binding as nerinetide”. For the same molecule, the “infarct volumes, hemispheric swelling and neurological scores” value ([3]; 7.6 mg/kg at 60 minutes after eMCAO, 24 hours) was “beneficial effect of D-Tat-L-2B9c was evident”, the “effect on infarction volume in the absence of alteplase” value ([3]; 7.6 mg/kg bolus at 60 minutes after eMCAO) was “as effective as nerinetide alone” and the “effect on infarction volume when given concurrently with alteplase” value ([3]; peptide 7.6 mg/kg and alteplase 5.4 mg/kg both at 60 min after eMCAO) was “this effect persisted”. The “stability alone in phosphate buffered saline” value [4] was “stable” and the “pharmacokinetic profile compared with nerinetide” value [5] was “higher cmax and AUC”.

For YGRKKRRQRRRKLSSIESDV, the not cleaved [6] was “not affected by co-incubation with alteplase”, the not cleaved [7] was “stable” and the not cleaved [8] was “stable”. The cleaved bond [9] was “K5-R, 5 min; also recorded: R6-R, 5 min; also recorded: R7-Q, 5 min; also recorded: R9-R, 5 min; also recorded: R11-K, 5 min; also recorded: K12-L, 5 min” and the fragment found [9] was “RKLSSIESDV (SEQ ID NO:8), 5 min”.

For “alteplase: a recombinant form of tPA; thrombolytic agent [reference compound]”, the “half-life in human plasma” value ([10]; in vivo) is listed as “about five”, the “reduction of infarction volume” value ([3]; alteplase alone 5.4 mg/kg given at 60 min after eMCAO) is listed as 26% and the “reduction of infarction volume” value ([3]; alteplase alone 5.4 mg/kg given at 90 minutes after eMCAO) is listed as 18%.

For ygrkkrrqrrrKLSSIESDV, the not cleaved [6] was “not affected by co-incubation with alteplase”, the not cleaved [11] was “no rapid elimination on addition of TNK” and the not cleaved [7] was “stable”. For the same molecule, the not cleaved [8] was “stable”, the not cleaved [12] was “no rapid elimination on addition of TNK” and the not cleaved [13] was “no rapid degradation on addition of alteplase”. The not cleaved [14] was “no significant degradation” and the not cleaved [15] was “no rapid degradation on addition of alteplase”.

B1: Plasmin: serine protease generated from circulating plasminogen by tissue-plasminogen activators (protein, UniProt P00747 20-580; P00747 581-810, looked up)
Plasmin heavy chain A: EPLDDYVNTQGASLFSVTKKQLGAGSIEECAAKCEEDEEFTCRAFQYHSKEQQCVIMAENRKSSIIIRMRDVVLFEKKVYLSECKTGNGKNYRGTMSKTKNGITCQKWSSTSPHRPRFSPATHPSEGLEENYCRNPDNDPQGPWCYTTDPEKRYDYCDILECEEECMHCSGENYDGKISKTMSGLECQAWDSQSPHAHGYIPSKFPNKNLKKNYCRNPDRELRPWCFTTDPNKRWELCDIPRCTTPPPSSGPTYQCLKGTGENYRGNVAVTVSGHTCQHWSAQTPHTHNRTPENFPCKNLDENYCRNPDGKRAPWCHTTNSQVRWEYCKIPSCDSSPVSTEQLAPTAPPELTPVVQDCYHGDGQSYRGTSSTTTTGKKCQSWSSMTPHRHQKTPENYPNAGLTMNYCRNPDADKGPWCFTTDPSVRWEYCNLKKCSGTEASVVAPPPVVLLPDVETPSEEDCMFGNGKGYRGKRATTVTGTPCQDWAAQEPHRHSIFTPETNPRAGLEKNYCRNPDGDVGGPWCYTTNPRKLYDYCDVPQCAAPSFDCGKPQVEPKKCPGR
Plasmin light chain B: VVGGCVAHPHSWPWQVSLRTRFGMHFCGGTLISPEWVLTAAHCLEKSPRPSSYKVILGAHQEVNLEPHVQEIEVSRLFLEPTRKDIALLKLSSPAVITDKVIPACLPSPNYVVADRTECFITGWGETQGTFGAGLLKEAQLPVIENKVCNRYEFLNGRVQSTELCAGHLAGGTDSCQGDSGGPLVCFEKDKYILQGVTSWGLGCARPNKPGVYVRVSRFVTWIEGVMRNN
modifications: plasmin
In the case of B1, the “half-life in human plasma” value ([10]; reported) is given as 4 to 8 h.
